Common to all, as to format: biochemical, bovine
The test system of experiment [1] is PA28-inactivating protein. Briefly: Effect of protease inhibitors on peptidase activity (Z-Leu-Arg-MNA hydrolysis) of PA28-inactivating protein. The protocol:
(§1) Assay for PA28-inactivating activity. The inactivation of PA28 was assessed by measuring residual PA28 activity after preincubation of purified PA28 with the inactivating protein. The preincubation contained purified bovine red blood cell PA28 (0.2 μg), 100 mM MES buffer, pH 5.2, 2 mM DTT, and inactivating protein or other factors, as described in this example, in a final volume of 15 μl. After preincubation at […] for 10 min., the reaction was stopped by addition of 1.0 ml of a solution containing 50 mM Trios-HCl, pH 8.0, 1 mM DTT, and 50 μM Suc-LeuLeu-Val-Tyr-AMC (or other proteasome substrate). […] The assays consisted of 50 mM MES buffer, pH 5.2, 1 mM DTT, 50 μM substrate, and 50 μl of column fractions in a final volume of 1.0 ml. Reactions were carried out at 30° C. and the release of free MNA (or other reporter group) was monitored directly by fluorescence. 1.0 unit of activity is defined as the increase in product concentration of 1.0 nM/min.

The subject of experiment [2] is PA28-inactivating protein. Put plainly: Effect of protease inhibitors on PA28-inactivating activity. On the procedure: as §1
In a further experiment the test system is 20S proteasome. Put plainly: Assay for PA700 activity (ATP-dependent activation of proteasome). The following applies: for ability of nucleotide to promote proteasome activation by PA700: in place of ATP.
Experiment [3] relates to PA28-inactivating protein. Put plainly: Hydrolysis of synthetic peptides and proteins by PA28-inactivating protein. The following applies: 0.05 μg enzyme, 50 μM substrate, 50 mM MES pH 5.2, 30° C.; 1.0 unit = 1.0 nM/min product. On the procedure: as §1
The test system of the next experiment is PA28. Put plainly: Assay for PA28-inactivating activity (residual PA28 activity after preincubation with peptidase). On the procedure:
as §1

[4] abbreviates: inhibitor 1 mM, preincubated 10 min at 30° C., Z-Leu-Arg-MNA.
[5] abbreviates: inhibitor 1 mM, preincubated 10 min at 30° C.
Setting [6] is: inhibitor 2 μM, preincubated 10 min at 30° C., Z-Leu-Arg-MNA.

Like-named read-outs stand apart in the source and are kept apart here. Numbered stars: 1 amine (or outer) side, 2 acyl side, 3 side chain; on linkers, the order of the positions; unused ones are H or OH. Peptide text beside a SMILES is read from it. CO = O=C([*:1])[*:2]

Experimental for 20S proteasome: Assay for PA700 activity. PA700 activity was assayed by measuring the increase in proteasome hydrolysis of the synthetic peptide Suc-Leu-Leu-Val-Tyr-AMC after preincubation of the two components in the presence of ATP. The standard preincubation solution consisted of 45 mM Tris-HCl, pH 7.5, 5 mM DTT, 60 μM ATP, 500 μM MgCl2, 0.3 μg purified proteasome, PA700 as indicated in specific experiments, and any other component as specified, in a final volume of 50 μl. This solution was preincubated at 37° C. for 45 min. The preincubation was ended by the addition of 1.0 ml of a solution containing 50 mM Tris-HCl, pH 8.0, 1 mM DTT, and 50 μM Suc-Leu-Leu-Val-Tyr-AMC. The rate of hydrolysis of the substrate was determined directly by fluorescence as described previously. Routine control assays were conducted in parallel and consisted of the complete procedure but without PA700. […] PA700 activity is defined as the increase in proteasome activity between the two conditions.

With `O=c1oc(Cl)c(Cl)c2ccccc12` [3,4-Dichloroisocoumarin, 3,4-dichloroisocoumarin], the “effect on the purified PA28-inactivating protein (PA28-inactivating activity and Z-Leu-Arg-MNA hydrolysis), in words” value (from here on “effect … in words”) in experiment [1] is recorded as “had no effect”. Also, the “Peptidase Activity (% Inhibition)” value in experiment [1] (setting [4]) is recorded as 0 % Inhibition. Moreover, the “PA28-Inactivating Activity (% Inhibition)” value in experiment [2] (setting [5]) is recorded as 0 % Inhibition.

`Nc1ncnc2c1ncn2[C@@H]1O[C@H](COP(=O)(O)OP(=O)(O)O)[C@@H](O)[C@H]1O` [ADP]: the “ability of nucleotide to promote proteasome activation by PA700” value (“ability of nucleotide” below) with 20S proteasome is “Neither ADP, AMP, adenosine, nor PPi promoted proteasome activation”.

Take `Nc1ncnc2c1ncn2[C@@H]1O[C@H](COP(=O)(O)O)[C@@H](O)[C@H]1O` [AMP]: the “ability of nucleotide” value in the experiment on 20S proteasome is recorded as “Neither ADP, AMP, adenosine, nor PPi promoted proteasome activation”.

As for `Nc1ncnc2c1ncn2[C@@H]1O[C@H](COP(=O)(O)OP(=O)(O)OP(=O)(O)O)[C@@H](O)[C@H]1O` [ATP], the “ATP concentration for maximal proteasome activation by PA700” value with 20S proteasome is “approximately 60 μM”.

Turning to `NCCc1ccc(S(=O)(=O)F)cc1` [Aminoethylbenzenesulfonylfluoride, aminoethylbenzenesulfonylfluoride], the “effect … in words” value in experiment [1] is “had no effect”. In addition, the “Peptidase Activity (% Inhibition)” value in experiment [1] (setting [4]) is reported as 0 % Inhibition. The “PA28-Inactivating Activity (% Inhibition)” value in experiment [2] (setting [5]) was determined as 0 % Inhibition.

For `CC(C)[C@H](NC(=O)[C@H](CCCNC(=N)N)NC(=O)N[C@@H](Cc1ccccc1)C(=O)O)C(=O)N[C@H](C=O)CCCNC(=N)N` [Antipain] ({Phe-CO}-Arg-Val-Arg-aldehyde), the “effect … in words” value in experiment [1] is reported as “inhibited the PA28-inactivating protein at concentrations in the μM range”. For the same molecule, the “Peptidase Activity (% Inhibition)” value in experiment [1] (setting [6]) came to 88 % Inhibition. In addition, the “PA28-Inactivating Activity (% Inhibition)” value in experiment [2] (inhibitor 2 μM, preincubated 10 min at 30° C.) was 90 % Inhibition.

`CC(C)C[C@H](NC(=O)[C@@H](O)[C@H](N)Cc1ccccc1)C(=O)O` [Bestatin]: in experiment [1] (setting [6]), the “Peptidase Activity (% Inhibition)” value came to 19 % Inhibition.

Take `Nc1ccn([C@@H]2O[C@H](COP(=O)(O)OP(=O)(O)OP(=O)(O)O)[C@@H](O)[C@H]2O)c(=O)n1` [CTP]: in the experiment with 20S proteasome (higher than ATP), the “concentration required for proteasome activation by PA700 relative to ATP” value was found to be 100 fold. In addition, in the experiment with 20S proteasome, the “ability of nucleotide” value is listed as “could also activate the proteasome”.

Take `O=C(O)CI` [Iodoacetate]: the “effect … in words” value in experiment [1] is reported as “inhibited each activity”. Further, in experiment [1] (10 min, 100 µM), the “Peptidase Activity (% Inhibition)” value came out at 83 % Inhibition. In experiment [2], the “effect on PA28-inactivating activity of bovine liver extract” value is recorded as “inhibited”. Also, in experiment [2] (10 min, 100 µM), the “PA28-Inactivating Activity (% Inhibition)” value amounted to 93 % Inhibition.

On to `CC(=O)N[C@@H](CC(C)C)C(=O)N[C@@H](CC(C)C)C(=O)N[C@H](C=O)CCCNC(=N)N` [Leupeptin], for which the “effect … in words” value in experiment [1] is listed as “inhibited the PA28-inactivating protein at concentrations in the μM range”. In addition, in experiment [1] (inhibitor 1 μM, preincubated 10 min at 30° C., Z-Leu-Arg-MNA), the “Peptidase Activity (% Inhibition)” value worked out at 100 % Inhibition. Also, the “PA28-Inactivating Activity (% Inhibition)” value in experiment [2] (inhibitor 1 μM, preincubated 10 min at 30° C.) was 100 % Inhibition. Moreover, in experiment [2] (preliminary characterization, crude liver extract), the “effect on PA28-inactivating activity of bovine liver extract” value is listed as “inhibited”.

With `O=P(O)(O)OP(=O)(O)O` [PPi], the “ability of nucleotide” value in the experiment on 20S proteasome is listed as “Neither ADP, AMP, adenosine, nor PPi promoted proteasome activation”.

For the molecule `COc1cc(NC(=O)[C@H](Cc2ccccc2)NC(=O)[C@H](CC(C)C)NC(=O)[C@H](Cc2ccccc2)NC(=O)CCC(=O)O)cc2ccccc12` [Suc--Phe--Leu--Phe--MNA], the “hydrolysis by PA28-inactivating protein” value in experiment [3] is 0 UNITS/μg.

Turning to `Cc1cc(=O)oc2cc(NC(=O)[C@H](Cc3ccc(O)cc3)NC(=O)CCC(=O)O)ccc12` [Suc--Tyr--AMC], the “hydrolysis by PA28-inactivating protein” value in experiment [3] is 0 UNITS/μg.

`Cc1ccc(S(=O)(=O)N[C@@H](CCCCN)C(=O)CCl)cc1` [TLCK]: in experiment [1] (10 min, 50 µM), the “Peptidase Activity (% Inhibition)” value came out at 88 % Inhibition.

In the case of `Cc1ccc(S(=O)(=O)N[C@@H](Cc2ccccc2)C(=O)CCl)cc1` [TPCK], the “Peptidase Activity (% Inhibition)” value in experiment [1] (inhibitor 50 μM, preincubated 10 min at 30° C., Z-Leu-Arg-MNA) amounted to 0 % Inhibition. For the same molecule, the “PA28-Inactivating Activity (% Inhibition)” value in experiment [2] (inhibitor 50 μM, preincubated 10 min at 30° C.) is listed as 0 % Inhibition.

For `COc1cc(NC(=O)[C@H](CCCNC(=N)N)NC(=O)OCc2ccccc2)cc2ccccc12` [Z--Arg--MNA], the “hydrolysis by PA28-inactivating protein” value in experiment [3] is reported as 0 UNITS/μg.

Turning to `O=C(CNC(=O)OCc1ccccc1)NCC(=O)N[C@@H](Cc1ccccc1)C(=O)Nc1ccc2ccccc2c1` [Z--Gly--Gly--Phe--βNA] (HELM PEPTIDE1{[O=C(OCc1ccccc1)[*:2]].G.G.F.[c1ccc2cc(N[*:1])ccc2c1]}$$$$V2.0), the “hydrolysis by PA28-inactivating protein” value in experiment [3] stood at 0 UNITS/μg.

On to `COc1cc(NC(=O)[C@H](CCCNC(=N)N)NC(=O)[C@@H]2CCCN2C(=O)CNC(=O)OCc2ccccc2)cc2ccccc12` [Z--Gly--Pro--Arg--MNA], for which, in experiment [3], the “hydrolysis by PA28-inactivating protein” value came out at 13 UNITS/μg.

With `COc1cc(NC(=O)[C@H](CCCNC(=N)N)NC(=O)[C@H](CC(C)C)NC(=O)OCc2ccccc2)cc2ccccc12` [Z--Leu--Arg--MNA, Z-Leu-Arg-MNA], in experiment [3], the “hydrolysis by PA28-inactivating protein” value was 98 UNITS/μg.

Turning to `COc1cc(NC(=O)[C@H](CCCCN)NC(=O)[C@H](CC(C)C)NC(=O)[C@H](CC(C)C)NC(=O)OCc2ccccc2)cc2ccccc12` [Z--Leu--Leu--Lys--MNA], the “hydrolysis by PA28-inactivating protein” value in experiment [3] is recorded as 19 UNITS/μg.

With `C[C@H](NC(=O)[C@H](Cc1ccccc1)NC(=O)OCc1ccccc1)C(=O)C=[N+]=[N-]` [Z--Phe--Ala--CHN2], in experiment [1] (inhibitor 15 μM, preincubated 10 min at 30° C., Z-Leu-Arg-MNA), the “Peptidase Activity (% Inhibition)” value is listed as 85 % Inhibition.

For the molecule `COc1cc(NC(=O)[C@H](Cc2ccc(O)cc2)NC(=O)[C@H](CO)NC(=O)OCc2ccccc2)cc2ccccc12` [Z--Ser--Tyr--MNA], the “hydrolysis by PA28-inactivating protein” value in experiment [3] amounted to 0 UNITS/μg.

Take `COc1cc(NC(=O)[C@H](CCCNC(=N)N)NC(=O)[C@H](CC(C)C)NC(=O)[C@@H](NC(=O)OCc2ccccc2)C(C)C)cc2ccccc12` [Z--Val--Leu--Arg--MNA, Z-Val-Leu-Arg-MNA]: in experiment [3], the “hydrolysis by PA28-inactivating protein” value turned out to be 28 UNITS/μg.

As for `Nc1ncnc2c1ncn2[C@@H]1O[C@H](CO)[C@@H](O)[C@H]1O` [adenosine], the “ability of nucleotide” value in the experiment with 20S proteasome is given as “Neither ADP, AMP, adenosine, nor PPi promoted proteasome activation”.

With Chymostatin, in experiment [1], the “effect … in words” value was “inhibited the PA28-inactivating protein at concentrations in the μM range”. In addition, the “Peptidase Activity (% Inhibition)” value in experiment [1] (inhibitor 5 μM, preincubated 10 min at 30° C., Z-Leu-Arg-MNA) was 83 % Inhibition.

On to trypsin, for which the “effect of peptidase or protease on PA28 activity” value (shortened to “effect of peptidase or protease”) in the experiment with PA28 was “rapidly inactivated PA28”.

B1: Carboxypeptidase Y: Carboxypeptidase Y from yeast (Boehringer, 1111914) (protein, UniProt P00729 112-532, looked up)
Carboxypeptidase Y: KIKDPKILGIDPNVTQYTGYLDVEDEDKHFFFWTFESRNDPAKDPVILWLNGGPGCSSLTGLFFELGPSSIGPDLKPIGNPYSWNSNATVIFLDQPVNVGFSYSGSSGVSNTVAAGKDVYNFLELFFDQFPEYVNKGQDFHIAGESYAGHYIPVFASEILSHKDRNFNLTSVLIGNGLTDPLTQYNYYEPMACGEGGEPSVLPSEECSAMEDSLERCLGLIESCYDSQSVWSCVPATIYCNNAQLAPYQRTGRNVYDIRKDCEGGNLCYPTLQDIDDYLNQDYVKEAVGAEVDHYESCNFDINRNFLFAGDWMKPYHTAVTDLLNQDLPILVYAGDKDFICNWLGNKAWTDVLPWKYDEEFASQKVRNWTASITDEVAGEVKSYKHFTYLRVFNGGHMVPFDVPENALSMVNEWIHGGFSL
For the molecule B1, the “effect of peptidase or protease” value with PA28 is “each inactivated PA28 without detectably altering its molecular weight on SDS-PAGE”.

B2: Carboxypeptidase B: Carboxypeptidase B from bovine pancreas (Sigma C7261) (protein, UniProt P00732 111-417, looked up)
Carboxypeptidase B: TTGHSYEKYNNWETIEAWTEQVASENPDLISRSAIGTTFLGNTIYLLKVGKPGSNKPAVFMDCGFHAREWISPAFCQWFVREAVRTYGREIHMTEFLDKLDFYVLPVVNIDGYIYTWTTNRMWRKTRSTRAGSSCTGTDLNRNFDAGWCSIGASNNPCSETYCGSAAESEKESKAVADFIRNHLSSIKAYLTIHSYSQMMLYPYSYDYKLPKNNVELNTLAKGAVKKLASLHGTTYTYGPGASTIYPASGGSDDWAYDQGIKYSFTFELRDKGRYGFVLPESQIQPTCEETMLAIKYVTSYVLEHLY
On to B2, for which the “effect of peptidase or protease” value in the experiment with PA28 was “each inactivated PA28 without detectably altering its molecular weight on SDS-PAGE”.

The values are drawn from patent US5847076A, “Regulators of the proteasome” (Board of Regents, The University of Texas System, priority 1993, dated 1998).
